The record followed here is ChEMBL document CHEMBL1697723, “A predictive ligand-based Bayesian model for human drug-induced liver injury” (Drug Metab Dispos, 2010).

The test system of one data set is Hepatotoxicity. Nature of the data set: Human drug-induced liver injury (DILI) modelling dataset from Ekins et al.
Conditions: not given
Take `NCCC(O)(P(=O)(O)O)P(=O)(O)O` [PAMIDRONIC ACID]: the Hepatotoxicity result is “DILI negative (training set)”.
Still for that read-out and setting: under `C#CCN(C)Cc1ccccc1` [PARGYLINE] stands “DILI negative (test set)”; under `NC[C@@H]1O[C@H](O[C@H]2[C@@H](O)[C@H](O[C@@H]3[C@@H](O)[C@H](N)C[C@H](N)[C@H]3O[C@H]3O[C@H](CO)[C@@H](O)[C@H](O)[C@H]3N)O[C@@H]2CO)[C@H](N)[C@@H](O)[C@@H]1O.O=S(=O)(O)O` [PAROMOMYCIN SULFATE], “DILI negative (training set)”; under `Fc1ccc([C@@H]2CCNC[C@H]2COc2ccc3c(c2)OCO3)cc1` [PAROXETINE], “DILI negative (training set)”.
On the same count and under the same terms, the value for `NC1=NC(=O)C(c2ccccc2)O1` (configuration not stated) [PEMOLINE] was “DILI positive (test set)”; that for `CC(C)(C)NC[C@H](O)COc1ccccc1C1CCCC1.CC(C)(C)NC[C@H](O)COc1ccccc1C1CCCC1.O=S(=O)(O)O` [PENBUTOLOL SULFATE] was “DILI positive (test set)”.
On the same count and under the same terms, the value for `CC1(C)S[C@@H]2[C@H](NC(=O)Cc3ccccc3)C(=O)N2[C@H]1C(=O)[O-].[Na+]` [PENICILLIN G SODIUM] was “DILI positive (training set)”; that for `C1CCC(C(CC2CCCCN2)C2CCCCC2)CC1` (configuration not stated) [PERHEXILINE] was “DILI positive (training set)”; that for `CC1(C)C(C=C(Cl)Cl)C1C(=O)OCc1cccc(Oc2ccccc2)c1` (configuration not stated) [PERMETHRIN] was “DILI negative (test set)”.
As for `CCOc1ccc(NC(C)=O)cc1` [PHENACETIN], the Hepatotoxicity result is given as “DILI positive (training set)”.
Same read-out and setting: the value for `Cl.Nc1ccc(/N=N/c2ccccc2)c(N)n1` [PHENAZOPYRIDINE HYDROCHLORIDE] was “DILI positive (training set)”.
With `c1ccc2c(c1)Nc1ccccc1S2` [PHENOTHIAZINE], the Hepatotoxicity entry is recorded as “DILI positive (test set)”.
Turning to `CC(COc1ccccc1)N(CCCl)Cc1ccccc1.Cl` (configuration not stated) [PHENOXYBENZAMINE HYDROCHLORIDE], the Hepatotoxicity entry is given as “DILI negative (training set)”.
On to `CS(=O)(=O)O.Cc1ccc(N(CC2=NCCN2)c2cccc(O)c2)cc1` [PHENTOLAMINE MESYLATE], for which the Hepatotoxicity entry is “DILI positive (training set)”.
`S=C=Nc1ccccc1` [PHENYLISOTHIOCYANATE]: the Hepatotoxicity result is listed as “DILI positive (test set)”.
For the compound `CC(N)C(O)c1ccccc1.Cl` (configuration not stated) [PHENYLPROPANOLAMINE HYDROCHLORIDE], the Hepatotoxicity result was “DILI negative (training set)”.
Same read-out and setting: the value for `CNC(=O)Oc1ccc2c(c1)[C@]1(C)CCN(C)[C@@H]1N2C` [PHYSOSTIGMINE] was “DILI negative (training set)”; that for `CC[C@@H]1C(=O)OC[C@@H]1Cc1cncn1C` [PILOCARPINE] was “DILI negative (training set)”; that for `O=c1[nH]c2ccccc2n1C1CCN(CCCC(c2ccc(F)cc2)c2ccc(F)cc2)CC1` [PIMOZIDE] was “DILI negative (test set)”.
Same read-out and setting: the value for `CC(N/C(=N\C#N)Nc1ccncc1)C(C)(C)C` (configuration not stated) [PINACIDIL ANHYDROUS] was “DILI negative (training set)”.
As for `CC(C)NCC(O)COc1cccc2[nH]ccc12` (configuration not stated) [PINDOLOL], the Hepatotoxicity entry is “DILI negative (training set)”.
Take `CCc1ccc(CCOc2ccc(CC3SC(=O)NC3=O)cc2)nc1` (configuration not stated) [PIOGLITAZONE]: the Hepatotoxicity entry was “DILI negative (test set)”.
The same measure, in the same setting: under `CN1C(C(=O)Nc2ccccn2)=C(O)c2ccccc2S1(=O)=O` [PIROXICAM] stands “DILI positive (training set)”; under `CC(C(=O)O)c1ccc(N2CC=CC2)c(Cl)c1` (configuration not stated) [PIRPROFEN], “DILI positive (test set)”; under `C[C@]12C=CC(=O)C=C1CC[C@@H]1[C@@H]2C(=O)C[C@@]2(C)[C@H]1CC[C@]2(O)C(=O)CO` [PREDNISONE], “DILI negative (training set)”.
The same measure, in the same setting: the value for `COc1cc(NC(C)CCCN)c2ncccc2c1.O=P(O)(O)O.O=P(O)(O)O` (configuration not stated) [PRIMAQUINE PHOSPHATE] was “DILI negative (training set)”.
The same measure, in the same setting: the value for `CCC1(c2ccccc2)C(=O)NCNC1=O` [PRIMIDONE] was “DILI negative (training set)”; that for `CCCN(CCC)S(=O)(=O)c1ccc(C(=O)O)cc1` [PROBENECID] was “DILI negative (test set)”; that for `CC(C)(Sc1cc(C(C)(C)C)c(O)c(C(C)(C)C)c1)Sc1cc(C(C)(C)C)c(O)c(C(C)(C)C)c1` [PROBUCOL] was “DILI negative (test set)”.
Regarding `CNNCc1ccc(C(=O)NC(C)C)cc1.Cl` [PROCARBAZINE HYDROCHLORIDE], the Hepatotoxicity entry is given as “DILI positive (training set)”.
Still for that read-out and setting: the value for `CN1CCN(CCCN2c3ccccc3Sc3ccc(Cl)cc32)CC1.O=C(O)/C=C\C(=O)O.O=C(O)/C=C\C(=O)O` [PROCHLORPERAZINE MALEATE] was “DILI positive (test set)”; that for `CC(=O)[C@H]1CC[C@H]2[C@@H]3CCC4=CC(=O)CC[C@]4(C)[C@H]3CC[C@]12C` [PROGESTERONE] was “DILI positive (training set)”.
For the compound `CN(C)CCCN1c2ccccc2Sc2ccccc21.Cl` [PROMAZINE HYDROCHLORIDE], the Hepatotoxicity result was “DILI negative (training set)”.
Take `CC(CN1c2ccccc2Sc2ccccc21)N(C)C.Cl` (configuration not stated) [PROMETHAZINE HYDROCHLORIDE]: the Hepatotoxicity entry is reported as “DILI negative (training set)”.
The same measure, in the same setting: under `CC(C)NCC(O)COc1cccc2ccccc12` (configuration not stated) [PROPRANOLOL] stands “DILI negative (test set)”; under `CN[C@@H](C)[C@@H](O)c1ccccc1.Cl` [PSEUDOEPHEDRINE HYDROCHLORIDE], “DILI negative (training set)”.
The same measure, in the same setting: the value for `COc1ccc(C[C@H](N)C(=O)N[C@H]2[C@@H](O)[C@H](n3cnc4c(N(C)C)ncnc43)O[C@@H]2CO)cc1` [PUROMYCIN] was “DILI positive (training set)”.
Still for that read-out and setting: the value for `NC(=O)c1cnccn1` [PYRAZINAMIDE] was “DILI positive (training set)”; that for `CN(C)C(=O)Oc1ccc[n+](C)c1.[Br-]` [PYRIDOSTIGMINE BROMIDE] was “DILI negative (training set)”.
With `CCc1nc(N)nc(N)c1-c1ccc(Cl)cc1` [PYRIMETHAMINE], the Hepatotoxicity entry is “DILI positive (training set)”.
On the same count and under the same terms, under `C=C[C@H]1C[N@@]2CC[C@H]1C[C@@H]2[C@@H](O)c1ccnc2ccc(OC)cc12` [QUINIDINE] stands “DILI positive (training set)”.
The same measure, in the same setting: under `C=C[C@H]1CN2CC[C@H]1C[C@H]2[C@H](O)c1ccnc2ccc(OC)cc12.C=C[C@H]1CN2CC[C@H]1C[C@H]2[C@H](O)c1ccnc2ccc(OC)cc12.O.O.O=S(=O)(O)O` [QUININE SULFATE] stands “DILI positive (test set)”; under `C=C[C@H]1C[N@@]2CC[C@H]1C[C@H]2[C@H](O)c1ccnc2ccc(OC)cc12` [QUININE], “DILI positive (training set)”; under `CCO[C@@H](Cc1ccc(OCCN2c3ccccc3Oc3ccccc32)cc1)C(=O)O` [RAGAGLITAZAR], “DILI negative (test set)”.
As to `O=C(c1ccc(OCCN2CCCCC2)cc1)c1c(-c2ccc(O)cc2)sc2cc(O)ccc12` [RALOXIFENE], the Hepatotoxicity result is on record as “DILI negative (training set)”.
Take `CNC(=C[N+](=O)[O-])NCCSCc1ccc(CN(C)C)o1` [RANITIDINE]: the Hepatotoxicity entry is recorded as “DILI negative (training set)”.
For `NC(=O)c1ncn([C@@H]2O[C@H](CO)[C@@H](O)[C@H]2O)n1` [RIBAVIRIN], the Hepatotoxicity result is “DILI negative (training set)”.
On the same count and under the same terms, the value for `CO[C@H]1/C=C/O[C@@]2(C)Oc3c(C)c(O)c4c(O)c(c(/C=N/N5CCN(C)CC5)c(O)c4c3C2=O)NC(=O)/C(C)=C\C=C\[C@H](C)[C@H](O)[C@@H](C)[C@@H](O)[C@@H](C)[C@H](OC(C)=O)[C@@H]1C` [RIFAMPIN] was “DILI negative (test set)”.
Still for that read-out and setting: the value for `Nc1nc2ccc(OC(F)(F)F)cc2s1` [RILUZOLE] was “DILI positive (training set)”.
Still for that read-out and setting: under `Cc1nc2n(c(=O)c1CCN1CCC(c3noc4cc(F)ccc34)CC1)CCCC2` [RISPERIDONE] stands “DILI positive (training set)”; under `CC(C)c1nc(CN(C)C(=O)N[C@H](C(=O)N[C@@H](Cc2ccccc2)C[C@H](O)[C@H](Cc2ccccc2)NC(=O)OCc2cncs2)C(C)C)cs1` [RITONAVIR], “DILI positive (test set)”; under `CN(CCOc1ccc(CC2SC(=O)NC2=O)cc1)c1ccccn1` (configuration not stated) [ROSIGLITAZONE], “DILI negative (test set)”.
On to `C=C(C)[C@H]1Cc2c(ccc3c2O[C@@H]2COc4cc(OC)c(OC)cc4[C@@H]2C3=O)O1` [ROTENONE], for which the Hepatotoxicity entry is “DILI positive (test set)”.
Same read-out and setting: the value for `OC[C@@H](O)[C@@H](O)[C@H](O)[C@@H](O)CO` [SORBITOL] was “DILI negative (training set)”.

Staying with this data set, now noted: Liver.
In the case of `CC(=O)O[C@H]1C(=O)[C@@]2(C)[C@H]([C@H](OC(=O)c3ccccc3)[C@]3(O)C[C@H](OC(=O)[C@H](O)[C@@H](NC(=O)c4ccccc4)c4ccccc4)C(C)=C1C3(C)C)[C@]1(OC(C)=O)CO[C@@H]1C[C@@H]2O` [PACLITAXEL], the Hepatotoxicity result is recorded as “DILI positive (test set)”.
Take `NNCCc1ccccc1` [PHENELZINE]: the Hepatotoxicity entry is “DILI negative (training set)”.
In the case of `O=C1NC(=O)C(c2ccccc2)(c2ccccc2)N1` [PHENYTOIN], the Hepatotoxicity entry was “DILI positive (training set)”.
Same read-out and setting: the value for `CC(C)c1cccc(C(C)C)c1O` [PROPOFOL] was “DILI negative (test set)”; that for `Cc1ncc(CO)c(CO)c1O` [PYRIDOXINE] was “DILI negative (training set)”; that for `CO[C@H]1/C=C/O[C@@]2(C)Oc3c(C)c(O)c4c(c3C2=O)C2=NC3(CCN(CC(C)C)CC3)NC2=C(NC(=O)/C(C)=C\C=C\[C@H](C)[C@H](O)[C@@H](C)[C@@H](O)[C@@H](C)[C@H](OC(C)=O)[C@@H]1C)C4=O` [RIFABUTIN] was “DILI positive (test set)”.
Turning to `CC(C)(C)NC(=O)[C@@H]1C[C@@H]2CCCC[C@@H]2CN1C[C@@H](O)[C@H](Cc1ccccc1)NC(=O)[C@H](CC(N)=O)NC(=O)c1ccc2ccccc2n1.CS(=O)(=O)O` [SAQUINAVIR MESYLATE], the Hepatotoxicity entry is “DILI positive (test set)”.
With `CN[C@H]1CC[C@@H](c2ccc(Cl)c(Cl)c2)c2ccccc21` [SERTRALINE], the Hepatotoxicity entry is recorded as “DILI negative (training set)”.
